The values that follow come from US6482858B1, “(−)-hydroxycitric acid for wound healing and immunomodulation” (priority 2001, dated 2002).

Where two headings read alike, the source gives them in different places.

Data set [1] in a line: Single-subject trial of potassium HCA: skin health and psoriasis. Particulars: middle-aged subject. In kind it is in vivo, human. An excerpt:
The results in the above examples led us to question whether HCA might be useful as a supplement for individuals not in need of weight loss and not under obvious stress. To this end, a middle-aged subject ingested approximately 2 to 3 grams HCA in the form of the potassium salt twice daily for 10 days. They were instructed to report on effects other than those which were to be expected, i.e., effects other than appetite control. Two quite interesting findings typical of re-regulation of corticoid metabolism emerged from this crude trial. […] These effects were similar in kind, although greater in degree, than this subject had experienced in the past when experimenting with relatively large dosages of melatonin (5 to 20 mg taken at bedtime) and, when much younger, amino acid supplementation designed to improve growth hormone release. We interpreted this finding as indicative of the normalization of melatonin and growth hormone metabolism. None of the side effects typical of elevated melatonin supplementation, such as morning grogginess or nasal congestion, were noted. Second, this subject noticed an improvement in their psoriasis during the last few days of the trial. In this subject's past experience, supplements which tended to improve their overall immune response and skin tone—including melatonin—at the same time tended to worsen their psoriasis. Therefore, this subject's experience with HCA was in line with the reports in the published literature regarding the condition as representative of corticoid and circadian dysregulation.

The target in the next data set is cortisol receptors (Homo sapiens, UniProt P04150). Particulars: cited from earlier work.
For data set [2] the following is noted: cited from earlier work; for % Body H2O / % Ash, wet / % Fat, wet / % Protein, wet: mean; for % Body H2O: 52.6 mmol/kg diet, six weeks; for % Ash, wet / % Fat, wet / % Protein, wet: wet weight.

Sequence of cortisol receptors (P04150 whole entry): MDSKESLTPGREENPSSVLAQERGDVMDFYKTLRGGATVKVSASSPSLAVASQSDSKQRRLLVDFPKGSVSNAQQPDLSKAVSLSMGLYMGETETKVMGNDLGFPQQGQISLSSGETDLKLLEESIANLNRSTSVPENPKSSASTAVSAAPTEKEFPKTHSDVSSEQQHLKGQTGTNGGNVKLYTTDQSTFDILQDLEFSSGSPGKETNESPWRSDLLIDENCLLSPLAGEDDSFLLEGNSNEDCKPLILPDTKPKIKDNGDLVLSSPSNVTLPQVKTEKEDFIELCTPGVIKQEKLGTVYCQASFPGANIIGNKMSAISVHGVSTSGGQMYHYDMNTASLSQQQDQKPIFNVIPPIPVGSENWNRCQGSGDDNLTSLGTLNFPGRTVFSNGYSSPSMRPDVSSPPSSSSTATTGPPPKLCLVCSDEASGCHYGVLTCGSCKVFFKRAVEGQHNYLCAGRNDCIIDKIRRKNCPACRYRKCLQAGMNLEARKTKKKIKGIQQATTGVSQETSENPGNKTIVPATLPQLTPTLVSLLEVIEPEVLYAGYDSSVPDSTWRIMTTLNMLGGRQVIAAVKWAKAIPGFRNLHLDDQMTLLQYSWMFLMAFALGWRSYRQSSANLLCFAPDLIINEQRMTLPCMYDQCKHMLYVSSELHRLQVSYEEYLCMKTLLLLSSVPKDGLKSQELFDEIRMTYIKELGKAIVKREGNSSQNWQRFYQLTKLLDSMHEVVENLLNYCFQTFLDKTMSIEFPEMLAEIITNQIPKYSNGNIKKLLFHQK

Regarding `O=C(O)CC(O)(C(=O)O)C(O)C(=O)O` (single isomer, unassigned; (-)) [HCA, (−)-hydroxycitric acid], the “Side effects typical of elevated melatonin supplementation (morning grogginess, nasal congestion)” value in data set [1] (10 days) is “None”. Moreover, the Psoriasis result in data set [1] (approximately 2 to 3 grams twice daily for 10 days, last few days of the trial) is given as “improvement”. Further, the Skin tone result in data set [1] (approximately 2 to 3 grams twice daily, before the first week had passed) is “improved markedly”.

As for `CC#C[C@]1(O)CC[C@H]2[C@@H]3CCC4=CC(=O)CCC4=C3[C@@H](c3ccc(N(C)C)cc3)C[C@@]21C` [RU 486, mifepristone], the “Plasma ACTH and cortisol” value at cortisol receptors (10 mg/kg.day oral, 7-14 days) is reported as “marked compensatory elevations”. In addition, on cortisol receptors (10 mg/kg.day oral, after 9 days of treatment), the “Subjects who developed generalized exanthem (skin rash)” value is 8 of the 11. The “Enhancement of immune function” value on cortisol receptors (high doses, normal volunteers, 7-14 days) is “does not result in measurable enhancement of immune function”.

On to `O=C([O-])CC(O)(C(=O)[O-])C(O)C(=O)[O-].[Na+].[Na+].[Na+]` (stereo not drawn) [Tri-NaHCA, trisodium (−)-hydroxycitrate], for which, in data set [2] (Zucker lean), the “% Body H2O” value is listed as 64.3%; the “% Ash, wet” value is listed as 4.9/NA %; the “% Fat, wet” value was 8.05/NA %; the “% Protein, wet” value is 22.0/NA %. In data set [2] (Zucker obese), the “% Body H2O” value is given as 25.8%; the “% Ash, wet” value is recorded as 2.6/NA %; the “% Fat, wet” value is given as 59.8/NA %; the “% Protein, wet” value is listed as 11.8/NA %. In addition, the “Carcass protein and ash/mineral content compared with control” value in data set [2] (lean and obese animals) is on record as “increased”.
